Experimental findings from patent US10736897B2, “Compounds and methods of use thereof for treatment of cancer” (Araxes Pharma LLC, priority 2017, dated 2020) are described below.

For the experiment, the target named is T1, KRAS G12C 1-169, his-tagged protein, GDP-loaded (Homo sapiens, UniProt P01116, G12C).
T1 construct: KRAS G12C 1-169, his-tagged protein, GDP-loaded; His tag
Put plainly: Biochemical assay: covalent modification of KRAS G12C measured by mass spectrometry (RapidFire/TOF or Q-Exactive). In kind it is binding. As to conditions: Modification Activity; modification percentage from deconvoluted MS peak intensities; compound concentration and incubation time for Table 2 not stated. As to the method:
Test compounds are prepared as 10 mM stock solutions in DMSO (Fisher cat # BP-231-100). KRAS G12C 1-169, his-tagged protein, GDP-loaded is diluted to 2 μM or 0.5 μM in buffer (20 mM Hepes, 150 mM NaCl, 1 mM MgCl2). Compounds are tested for activity as follows:
Compounds are diluted to 50× final test concentration in DMSO in 96-well storage plates. Compound stock solutions are vortexed before use and observed carefully for any sign of precipitation. Dilutions are as follow: • For 100 μM final compound concentration, compounds are diluted to 5000 μM (5 μL 10 mM compound stock+5 μL DMSO and mixed well by pipetting. • For 30 μM final compound concentration, compounds are diluted to 1500 μM (3 μL 10 mM compound stock+17 μL DMSO) and mixed well by pipetting. • For 10 μM final compound concentration, compounds are diluted to 500 μM (2 μL 10 mM compound stock+38 μL DMSO) and mixed well by pipetting. 49 μL of the stock protein solution is added to each well of a 96-well PCR plate (Fisher cat #1423027). 1 μl of the diluted 50× compounds are added to appropriate wells in the PCR plate using 12-channel pipettor. Reactions are mixed carefully and thoroughly by pipetting up/down with a 200 μL multi-channel pipettor. The plate is sealed well with aluminum plate seal, and stored in drawer at room temperature for 10 minutes, 30 minutes, 2 hours or 24 hours. 5 μL of 2% formic acid (Fisher cat # A117) in de-ionized H2O is then added to each well followed by mixing with a pipette. The plate is then resealed with aluminum seal and stored on dry ice until analyzed as described below.
The above described assays are analyzed by mass spectrometry according to one of the following two procedures:
The MS instrument is set to positive polarity, 2 GHz resolution, and low mass (1700) mode and allowed to equilibrate for 30 minutes. The instrument is then calibrated, switched to acquisition mode and the appropriate method loaded.
After another 30 minute equilibration time, a blank batch (i.e., buffer) is run to ensure equipment is operating properly. The samples are thawed at 37° C. for 10 minutes, briefly centrifuged, and transfer to the bench top. Wells A1 and H12 are spiked with 1 μL 500 μM internal standard peptide, and the plates centrifuged at 2000×g for 5 minutes. The method is then run and masses of each individual well recorded.
The masses (for which integration data is desired) for each well are pasted into the platemap and exported from the analysis. Masses for the internal standards are exported as well. The data at 50 ppm is extracted for the +19 charge state, and identity of well A1 is assigned using the internal standard spike and integrated. Peak data is exported as a TOF list and the above steps are repeated individually, for the +20, 21, 22, 23, 24, and 25 charge states.
The masses and peak intensities of KRAS G12C protein species are measured using a Dionex RSLCnano system (Thermo Scientific) connected to a Q Exactive Plus mass spectrometer (Thermo Scientific).
[…] of sample is each loaded onto a Aeris™ 3.6 μm WIDEPORE C4 200 Å, LC Column 50×2.1 mm column maintained at 40° C. at a flow rate of 600 μL/min with […] (0.1% formic acid in acetonitrile). The liquid chromatography conditions are 20% solvent B for 1 minute, 20% to 60% solvent B for 1.5 minutes, 60% to 90% solvent for 0.5 minute, 90% solvent B for 0.2 minute, 90% to 20% solvent B for 0.2 minute, and then equilibrated for 1.6 minute before the following sample injection. The flow rate is maintained at 600 μL/min throughout the sample analysis.
The mass spectrometer is operated in profile mode at a resolution of 17500, 5 microscans, using 50 msec max injection time and an AGC target of 1×10^6, and a full mass range from 800-1850 m/z is recorded. The HCD trapping gas is optimized for maximum sensitivity for intact proteins. […]
In the case of `C=CC(=O)N1CCN(c2c(C#N)cnc3c(F)c(-c4c(C)ccc5cnn(C6CC6)c45)c(Cl)cc23)CC1` [Compound 14, 4-(4-acryloylpiperazin-1-yl)-6-chloro-7-(1-cyclopropyl-6-methyl-1H-indazol-7-yl)-8-fluoroquinoline-3-carbonitrile], the Binding % result is given as “+++ (+++ indicates binding activity greater than 85%)”.
Turning to `C=CC(=O)N1CCN(c2cc(C#N)nc3c(F)c(-c4c(C)ccc5cnn(C)c45)c(Cl)cc23)CC1` [Compound 28, 4-(4-acryloylpiperazin-1-yl)-6-chloro-7-(1,6-dimethyl-1H-indazol-7-yl)-8-fluoroquinoline-2-carbonitrile], the Binding % result was “+++ (+++ indicates binding activity greater than 85%)”.
Consider `C=CC(=O)N1C[C@H](C)N(c2c(C#N)cnc3c(F)c(-c4c(C)ccc5[nH]nc(C)c45)c(Cl)cc23)C[C@H]1C` [Compound 21, 4-((2S,5R)-4-acryloyl-2,5-dimethylpiperazin-1-yl)-6-chloro-7-(3,5-dimethyl-1H-indazol-4-yl)-8-fluoroquinoline-3-carbonitrile], for which the Binding % result was “+ (+ indicates binding activity greater than 0% and up to 50%)”.
The value for `C=CC(=O)N1CCN(c2cc(C#N)nc3c(F)c(-c4c(C)ccc5[nH]nc(C)c45)c(Cl)cc23)CC1` [Compound 29, 4-(4-acryloylpiperazin-1-yl)-6-chloro-7-(3,5-dimethyl-1H-indazol-4-yl)-8-fluoroquinoline-2-carbontrile] was “++ (++ indicates binding activity from 50 to 85%)”.
Regarding `C=CC(=O)N1C[C@H](C)N(c2ncnc3c(F)c(-c4c(C)ccc5cnn(C)c45)c(Cl)cc23)C[C@H]1C` [Compound 7, 1-((2R,5S)-4-((S)-6-chloro-7-(1,6-dimethyl-1H-indazol-7-yl)-8-fluoroquinazolin-4-yl)-2,5-dimethylpiperazin-1-yl)prop-2-en-1-one], the Binding % result was “+ (+ indicates binding activity greater than 0% and up to 50%)”.
Consider `C=CC(=O)N1C[C@H](C)N(c2ncnc3c(F)c(-c4c(C)ccc5[nH]nc(N)c45)c(Cl)cc23)C[C@H]1C` [Compound 6, 1-((2R,5S)-4-((S)-7-(3-amino-5-methyl-1H-indazol-4-yl)-6-chloro-8-fluoroquinazolin-4-yl)-2,5-dimethylpiperazin-1-yl)prop-2-en-1-one], for which the Binding % entry is “+ (+ indicates binding activity greater than 0% and up to 50%)”.
As for `C=CC(=O)N1[C@H](C)CN(c2c(C#N)cnc3c(F)c(-c4c(C)ccc5cnn(C)c45)c(Cl)cc23)C[C@@H]1C` [Compound 22, 4-((3S,5R)-4-acryloyl-3,5-dimethylpiperazin-1-yl)-6-chloro-7-(1,6-dimethyl-1H-indazol-7-yl)-8-fluoroquinoline-3-carbonitrile], the entry is “++ (++ indicates binding activity from 50 to 85%)”.
`C=CC(=O)N1[C@H](C)CN(c2ncnc3c(F)c(-c4c(C)ccc5cnn(C)c45)c(Cl)cc23)C[C@@H]1C` (atropisomer, axis not shown) [Compound 9, 1-((2S,6R)-4-((S)-6-chloro-7-(1,6-dimethyl-1H-indazol-7-yl)-8-fluoroquinazolin-4-yl)-2,6-dimethylpiperazin-1-yl)prop-2-en-1-one]: the Binding % result was “+ (+ indicates binding activity greater than 0% and up to 50%)”.
Consider `C=CC(=O)N1CCN(c2c(C#N)cnc3c(F)c(-c4c(C)ccc5cnn(C)c45)c(Cl)cc23)C[C@H]1C` [Compound 24, 4-((R)-4-acryloyl-3-methylpiperazin-1-yl)-6-chloro-7-(1,6-dimethyl-1H-indazol-7-yl)-8-fluoroquinoline-3-carbonitrile], for which the Binding % result is “+++ (+++ indicates binding activity greater than 85%)”.
